Reference: patent US6939892B2, “Compositions for treating or preventing malaria and method of treating malaria” (Zaidan Hojin Biseibutsu Kagaku Kenkyu Kai, priority 2000, dated 2005)
Counter-ions that a name gives are not always drawn. Like-named read-outs stand apart in the source and are kept apart here. One block for each molecule: values may come before it.

Key:
Plasmodium falciparum = test: In vitro test of inhibitory activity against proliferation of malarial parasites in human red blood cells; format: cell-based; details: for Selective toxicity: ratio of EC50 for the F28-7 cell line to EC50 for the malarial parasite (P. falciparum FCR-3 strain); for Rate (%) of proliferation of malarial parasite: 72 hours
Procedure: In this test Example, two strains of Plasmodium falciparum, namely strain FCR-3 (ATCC 30932) and strain Honduras-1 (ATCC 30950) were used as the malarial parasites to be tested, and each malarial strain was incubated separately in vitro as described below. […] The resulting culture medium as supplemented with the human serum was then adjusted to have a hematocrit level (namely, a ratio of the total volume of the red blood cells to the volume of the liquid culture medium comprising the suspended red blood cells) of 5%, and thereafter the culture medium as adjusted was placed in individual wells of 24-well incubation microplates. The culture medium in each well was inoculated with Plasmodium falciparum under test. The initial rate (%) of infection of the red blood cells with the malarial parasite in individual wells was then adjusted to a value of 0.1% at the start of the incubation. Thereafter, there was carried out the incubation of the red blood cells along with the infecting Plasmodium falciparum. This incubation was effected at 36.5° C. in an atmosphere comprising 5.0% oxygen, 5.0% carbon dioxide and 90% nitrogen.
The culture medium present in each well was daily changed freshly. At the time when the rate (%) of infection of the red blood cells with the malarial parasite increased to reach a value of 4%, the transfer of the incubated cultures to another incubation microplates was conducted. Thus, the cultures of the malarial parasites under test were prepared.
By the way, the rate (%) of infection of the red blood cells with the malarial parasite as above-mentioned was evaluated by a procedure that comprised removing a sample from the culture of the parasitized red blood cells in each well, preparing thin blood film specimen containing the red blood cells from each sample, staining said thin blood film specimen by means of Giemsa staining or Diff-Qick staining method, counting the number of the stained red blood cells as infected with the malarial parasite per one thin blood film, under a microscope (oil immersion; 1,000×), and calculating the rate (%) of infection of the red blood cells with malarial parasite according to the undermentioned equation: [formula]
In turn, the abovementioned culture of the parasitized red blood cells as prepared in the above was subjected to a centrifugation to collect the red blood cells which had been infected with the malarial parasite. The infected red blood cells so collected were washed with an PRMI 1640 medium supplemented with the human serum, and then were added with such red blood cells which were not yet infected with the malarial parasite. Thus, there was prepared such a culture of the malarial parasite having infected the red blood cells, in which the initial rate (%) of infection of the red blood cells with the malarial parasite had firstly been adjusted to a value of 0.3%. The hematocrit level of this culture of the malarial parasite so prepared at this time point was 3%.
On the other hand, the compound to be tested in the present experiments was previously prepared in the form of a solution of each compound dissolved in a sterilized water, dimethylformamide (DMF) or dimethylsulfoxide (DMSO).
(i) The culture medium to be used for incubation of malarial parasite as above-mentioned was placed in individual wells of a multidish 24-wells. Then, for the treated test groups, each solution of the test compound as previously prepared in the above was added in an amount of 5 to 10 microliters (μl) into each well containing said culture medium therein. Then, the concentration of the test compound as added to the culture medium present in the individual wells of the multidish 24-well microplates was adjusted to different values in the individual wells. The test was carried out in duplicate or triplicate. On the other hand, for the control test groups (untreated), no test compound was added to each well, but instead thereof sterilized water, DMF or DMSO was added thereto in an amount of 10 μl.

[1] = tested on: subclone F28-7 cells of FM3A cell line originating from a mouse mammary tumor; test: Toxicity of test compound against subclone F28-7 cells of FM3A cell line (cell proliferation); format: cell-based; details: for EC50: Mus musculus, FM3A; for Rate (%) of proliferation of cells of the F28-7 cell line: 48 hours
Procedure: Cells of subclone F28-7 cell line of a mouse mammary tumor, which is a wild type cell line of the FM3A cell line originating from a mouse mammary tumor, were used as the test cells. The culture medium to be used for cultivation of the cells of the subclone F28-7 cell line was prepared by supplementing an ES medium with 2% of a heat-inactivated fetal bovine serum. The cultivation of the subclone F28-7 cell line under test was effected in this serum-supplemented ES medium at 37° C. in air containing 5% CO2.
After the pre-cultivation was effected, the cell density of cells of the subclone F28-7 cell line which had entered the logarithmic proliferation phase was adjusted to a level of 5×10^4 cells/ml by diluting the culture of the cells with a volume of the fresh culture medium. Thus, there was prepared a cell suspension of cells of the subclone F28-7 cell line as cultured.
For the solution of the test compound, there was used the same solution as that which was hereinbefore prepared in the test for the determination of the antimalarial activity of the test compound against the proliferation of malarial parasite.
The culture medium to be used for the cultivation of the subclone F28-7 cell line above mentioned was placed in the individual wells of a multidish 24-wells. Then, for the treated test groups, the solution of the test compound was added in an amount of 5˜10 microliters to the culture medium in each well of the incubation plate so as to adjust a final concentration of the test compound as added to be 1×10^−4 to 1×10^−6 M.
The test was carried out in duplicate or triplicate. On the other hand, for the control test groups (untreated), no test compound was added to each well, but instead thereof a sterilized water, DMF or DMSO was added to each well in an amount of 10 μl. Then, the cell suspension of cells of the subclone F28-7 cell line as already prepared in the above was dispensed in an amount of 990-995 μl to each well by pipetting. The pipetting was effected carefully and gently, so that the cells as added were evenly suspended in the culture medium in each well. Thereafter, the cells of subclone F28-7 cell line were incubated for 48 hours under the aforesaid cultivating conditions. Then, the number of the cells of the subclone F28-7 cell line was counted by means of a microcell counter (CC-108, Toa Medical Electric Co.) for the cell culture as obtained in the individual wells of both the treated test groups and the control test (untreated) groups.
The inhibitory activity of the test compound against the proliferation of cells of the subclone F28-7 cell line was subsequently estimated from such value of the rate (%) of the proliferation of cells of the subclone F28-7 cell line which is defined by the undermentioned equation with reference to the counted number of cells of the subclone F28-7 cell line in the cell culture contained in each well and having been incubated in the presence of the test compound added for the treated test group, and with reference to the counted number of cells of the subclone F28-7 cell line having been incubated in the absence of the test compound for the control test group. The toxicity of the test compound was thus evaluated from the value of the rate (%) of proliferation of cells of the subclone F28-7 cell line so estimated. [formula]

Solubility in solvents = format: physicochemical
[2] = tested on: Plasmodium berghei NK65 strain; test: In vivo test of antimalarial activity against malarial parasite in infected ICR mice; details: ICR mice infected with P. berghei NK65, dose of 5 mg/kg, printed 'intravenous injection', once a day on Day 0 and Day 1, blood read on Day 4
Description: As mice for this test, there were used ICR mice (male) of 5-weeks old with body weight of 26-31 g (five mice per group). As the source of the malarial infection for this experiment, murine malarial parasite, Plasmodium berghei NK65 strain was used.
Blood sample was drawn by cardiac puncture from each of the donor ICR mice which had been infected with Plasmodium berghei NK65 strain. […]
For sake of convenience, a time schedule was so set that the time of inoculating the test mice with the malarial parasite by intravenous injection of the cell suspension of the parasitized red blood cells was Day 0. […] For both of the untreated test group and the treated test group, the rate (%) of infection of the red blood cells with the malarial parasite in each of the mouse blood samples was evaluated. […] The rate (%) of inhibition against the proliferation of the malarial parasite used here indicates such value as calculated by the following equation: [formula] where A means the average rate (%) of infection of the red blood cells with the malarial parasite as effected in the untreated test group, and B means the average rate (%) of infection of the red blood cells with the malarial parasite as effected in the treated test group.

[3] = Acute toxicity, intraperitoneal injection; format: in vivo; details: mouse, in vivo, ip; ICR mice, intraperitoneal administration, 14th day
Procedure: (§1) SF2487 substance (Na salt) in the form of a solution dissolved in a physiological saline containing 10% DMSO was administered to ICR mice (5-weeks old, 3 mice per group) in different doses by intraperitoneal injection.

ICR mice = test: Acute toxicity, intraperitoneal injection; format: in vivo; details: 14th day, 3 mice per group
Procedure: as §1

[4] = read-out: EC50 values, namely molar concentrations of test compound for the 50% inhibition of proliferation, P. falciparum FCR-3 strain, 72 hours incubation
[5] = read-out: EC50 values, namely molar concentrations of test compound for the 50% inhibition of proliferation, the F28-7 cell line, F28-7 cell line, 48 hours incubation
[6] = 48 h, read-out: EC50 values, namely molar concentrations of test compound for the 50% inhibition of proliferation, the F28-7 cell line
[7] = 1 × 10^−7 Molar test compound in culture medium

Compound: CCN(CC)CCCC(C)Nc1ccnc2cc(Cl)ccc12 (stereo not drawn) [Chloroquine, reference compound]
EC50 (Plasmodium falciparum; [4]): 18 nM
EC50 [1, 6]: 32000 nM

Compound: C=C[C@H]1C[N@@]2CC[C@H]1C[C@H]2[C@H](O)c1ccnc2ccc(OC)cc12 [Quinine, reference compound]
Selective toxicity (Plasmodium falciparum): 910
EC50 (Plasmodium falciparum; [4]): 110 nM
EC50 [1, 5]: 100000 nM

Compound: C=C1OC(O)=C(C(=O)C(OC)C2C(/C=C(\CO)C3CCC(C)C(/C(C)=C/CC4OC(C)(C5CCC(C(O)CC)O5)CC4C)O3)CC(C)C(O)C2CO)C1=O (stereo not drawn) [SF2487 substance Na salt]
Rate (%) of proliferation of malarial parasite (Plasmodium falciparum; [7]): 0%
Rate (%) of proliferation of malarial parasite (Plasmodium falciparum; 1 × 10^−8 Molar test compound in culture medium): 10%
Rate (%) of proliferation of malarial parasite (Plasmodium falciparum; 1 × 10^−9 Molar test compound in culture medium): 60%
Rate (%) of proliferation of malarial parasite (Plasmodium falciparum; 1 × 10^−10 Molar test compound in culture medium): 100%
Rate (%) of proliferation of malarial parasite (Plasmodium falciparum; 3 × 10^−8 Molar test compound in culture medium): 5%
Rate (%) of proliferation of malarial parasite (Plasmodium falciparum; 3 × 10^−9 Molar test compound in culture medium): 40%
Rate (%) of proliferation of malarial parasite (Plasmodium falciparum; 3 × 10^−10 Molar test compound in culture medium): 100%
Rate (%) of proliferation of malarial parasite (Plasmodium falciparum; 7 × 10^−8 Molar test compound in culture medium): 0%
Rate (%) of proliferation of malarial parasite (Plasmodium falciparum; 7 × 10^−9 Molar test compound in culture medium): 25%
Rate (%) of proliferation of malarial parasite (Plasmodium falciparum; 7 × 10^−10 Molar test compound in culture medium): 85%
EC50 (Plasmodium falciparum; Plasmodium falciparum, Erythrocyte, read-out: concentration necessary to inhibit the proliferation of malarial parasite by 50% (EC50)): 2 nM
Selective toxicity (Plasmodium falciparum): 800
solubility (Solubility in solvents; in chloroform, ethyl acetate and dimethylsulfoxide): soluble
solubility (Solubility in solvents; in ethanol): slightly soluble
solubility (Solubility in solvents; in water): hardly soluble
Rate (%) of proliferation of cells of the F28-7 cell line ([1]; 1 × 10^−5 Molar test compound in culture medium): 0%
Rate (%) of proliferation of cells of the F28-7 cell line ([1]; 1 × 10^−6 Molar test compound in culture medium): 58%
Rate (%) of proliferation of cells of the F28-7 cell line [1, 7]: 100%
Rate (%) of proliferation of cells of the F28-7 cell line ([1]; 3 + 10^−5 Molar test compound in culture medium): 0%
Rate (%) of proliferation of cells of the F28-7 cell line ([1]; 3 × 10^−6 Molar test compound in culture medium): 45%
Rate (%) of proliferation of cells of the F28-7 cell line ([1]; 3 × 10^−7 Molar test compound in culture medium): 100%
Rate (%) of proliferation of cells of the F28-7 cell line ([1]; 7 × 10^−6 Molar test compound in culture medium): 10%
Rate (%) of proliferation of cells of the F28-7 cell line ([1]; 7 × 10^−7 Molar test compound in culture medium): 70%
EC50 [1, 6]: 1600 nM
EC50 ([1]; read-out: concentration necessary to inhibit the proliferation of cells of the F28-7 cell line by 50% (EC50)): 1600 nM
rate (%) of inhibition against the proliferation of the malarial parasite [2]: 80%
LD50 at 14 days [3]: ≥ 25 mg/kg
mortality (ICR mice; 12.5 mg/kg intraperitoneal injection): all three mice survived
mortality (ICR mice; 25 mg/kg intraperitoneal injection): one mouse died among three mice

More lines, main results first:

EC50 (Plasmodium falciparum; [4]): 7.8 nM
Compound: C[C@@H]1CC[C@H]2[C@@H](C)C(=O)O[C@@H]3O[C@@]4(C)CC[C@@H]1[C@]32OO4 [Artemisinin, reference compound]
EC50 [1, 5]: 10000 nM

EC50 (Plasmodium falciparum; [4]): 32 nM
Compound: OC(c1cc(C(F)(F)F)nc2c(C(F)(F)F)cccc12)C1CCCCN1 (stereo not drawn) [Mefloquine, reference compound]
Selective toxicity (Plasmodium falciparum): 91
EC50 [1, 5]: 2900 nM

EC50 (Plasmodium falciparum; [4]): 1 nM
Compound: CCc1nc(N)nc(N)c1-c1ccc(Cl)cc1 [Pyrimethamine, reference compound]
Selective toxicity (Plasmodium falciparum): 120
EC50 [1, 5]: 120 nM
